Legend:
Assay type in all cases: in vivo
[1] = system: soybean (Glycine max L., var. Pella 86, SOY); assay: Post-emerge greenhouse crop damage test
In short: (§1)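 Greenhouse pot test; acetone vehicle, 187 l/ha, 15–1000 g ai/ha. Post: 2–3 leaf, +0.25% v/v non-ionic surfactant. Pre: sown d-1, surface-watered after spray. Read-out 0–100 injury, 14 DAT.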

[2] = system: field corn (Zea mays L., var. Dekalb 527, CORN); assay: Post-emerge greenhouse crop damage test
In short: as §1

[3] = system: upland rice (Ory0a sp., var.Tebonnet, RICE); assay: Post-emerge greenhouse crop damage test
In short: as §1

[4] = system: lambsquarters (Chenopodium album, CHEAL); assay: Pre-emerge greenhouse herbicide test; conditions: 250 g ai/ha, 14 days after application, scale 0-100 (0 no damage, 100 complete death)
In short: as §1

[5] = system: large crabgrass (Digitaria sanguinalis, DIGSA); assay: Pre-emerge greenhouse herbicide test; conditions: 250 g ai/ha, 14 days after application, scale 0-100 (0 no damage, 100 complete death)
In short: as §1

[6] = system: redroot pigweed (Amaranthus retroflexus, AMARE); assay: Pre-emerge greenhouse herbicide test; conditions: 250 g ai/ha, 14 days after application, scale 0-100 (0 no damage, 100 complete death)
In short: as §1

[7] = system: ivyleaf morningglory (Ipomoea hederacea, IPOHE); assay: Pre-emerge greenhouse herbicide test; conditions: 250 g ai/ha, 14 days after application, scale 0-100 (0 no damage, 100 complete death)
In short: as §1

[8] = system: johnsongrass (Sorghum halepense, SORHA); assay: Pre-emerge greenhouse herbicide test; conditions: 250 g ai/ha, 14 days after application, scale 0-100 (0 no damage, 100 complete death)
In short: as §1

[9] = system: sicklepod (Cassia obtusifolia, CASOB); assay: Pre-emerge greenhouse herbicide test; conditions: 250 g ai/ha, 14 days after application, scale 0-100 (0 no damage, 100 complete death)
In short: as §1

[10] = system: barnyardgrass (Echinochloa crus-galli, ECHCG); assay: Pre-emerge greenhouse herbicide test; conditions: 250 g ai/ha, 14 days after application, scale 0-100 (0 no damage, 100 complete death)
In short: as §1

[11] = system: velvetleaf (Abutilon theophrasti, ABUTH); assay: Pre-emerge greenhouse herbicide test; conditions: 250 g ai/ha, 14 days after application, scale 0-100 (0 no damage, 100 complete death)
In short: as §1

[12] = system: green foxtail (Setaria viridis, SETVI); assay: Pre-emerge greenhouse herbicide test; conditions: 250 g ai/ha, 14 days after application, scale 0-100 (0 no damage, 100 complete death)
In short: as §1

[13] = system: soybean (Glycine max L., var. Pella 86, SOY); assay: Pre-emerge greenhouse crop damage test
In short: as §1

[14] = system: field corn (Zea mays L., var. Dekalb 527, CORN); assay: Pre-emerge greenhouse crop damage test
In short: as §1

[15] = system: upland rice (Ory0a sp., var.Tebonnet, RICE); assay: Pre-emerge greenhouse crop damage test; conditions: in vivo
In short: as §1

[16] = system: lambsquarters (Chenopodium album, CHEAL); assay: Post-emerge greenhouse herbicide test; conditions: 250 g ai/ha, 14 days after application
In short: as §1

[17] = system: large crabgrass (Digitaria sanguinalis, DIGSA); assay: Post-emerge greenhouse herbicide test; conditions: 250 g ai/ha, 14 days after application
In short: as §1

[18] = system: redroot pigweed (Amaranthus retroflexus, AMARE); assay: Post-emerge greenhouse herbicide test; conditions: 250 g ai/ha, 14 days after application
In short: as §1

[19] = system: ivyleaf morningglory (Ipomoea hederacea, IPOHE); assay: Post-emerge greenhouse herbicide test; conditions: 250 g ai/ha, 14 days after application
In short: as §1

[20] = system: johnsongrass (Sorghum halepense, SORHA); assay: Post-emerge greenhouse herbicide test; conditions: 250 g ai/ha, 14 days after application
In short: as §1

[21] = system: sicklepod (Cassia obtusifolia, CASOB); assay: Post-emerge greenhouse herbicide test; conditions: 250 g ai/ha, 14 days after application
In short: as §1

[22] = system: barnyardgrass (Echinochloa crus-galli, ECHCG); assay: Post-emerge greenhouse herbicide test; conditions: 250 g ai/ha, 14 days after application
In short: as §1

[23] = system: velvetleaf (Abutilon theophrasti, ABUTH); assay: Post-emerge greenhouse herbicide test; conditions: 250 g ai/ha, 14 days after application
In short: as §1

[24] = system: common ragweed (Ambrosia artemisiifolia L., AMBEL); assay: Post-emerge greenhouse herbicide test; conditions: 250 g ai/ha, 14 days after application
In short: as §1

[25] = system: green foxtail (Setaria viridis, SETVI); assay: Post-emerge greenhouse herbicide test; conditions: 250 g ai/ha, 14 days after application
In short: as §1

[26] = 250 g ai/ha, post-emerge, 14 days after application
[27] = pre-emerge, 250 g ai/ha, 14 days after application, scale 0-100 (0 no damage, 100 complete death)
[28] = var. Pella 86, soybean (Glycine max L.), in vivo, 14 days
[29] = var. Dekalb 527, field corn (Zea mays L.), in vivo, 14 days

Q: What does the source list for `Cc1nc2c(-n3ncc(C(F)(F)F)cc3=O)c(F)cc(Cl)c2o1` [Compound 12-1]?
A: Post-emerge crop damage SOY (phytotoxicity rating 0-100) [1, 26]: 50; Post-emerge crop damage CORN (phytotoxicity rating 0-100) [2, 26]: 0; Post-emerge crop damage RICE (phytotoxicity rating 0-100) [3, 26]: 10; Pre-emerge Herbicidal Activity CHEAL (phytotoxicity rating) [4]: 100; Pre-emerge Herbicidal Activity DIGSA (phytotoxicity rating) [5]: 100; Pre-emerge Herbicidal Activity AMARE (phytotoxicity rating) [6]: 100; Pre-emerge Herbicidal Activity IPOHE (phytotoxicity rating) [7]: 99; Pre-emerge Herbicidal Activity SORHA (phytotoxicity rating) [8]: 100; Pre-emerge Herbicidal Activity CASOB (phytotoxicity rating) [9]: 90; Pre-emerge Herbicidal Activity ECHCG (phytotoxicity rating) [10]: 100; Pre-emerge Herbicidal Activity ABUTH (phytotoxicity rating) [11]: 100; Pre-emerge Herbicidal Activity SETVI (phytotoxicity rating) [12]: 100; Pre-emerge Herbicidal Activity SOY (crop damage rating) [13, 27]: 70; Pre-emerge Herbicidal Activity CORN (crop damage rating) [14, 27]: 100; Pre-emerge Herbicidal Activity RICE (crop damage rating) [15]: 90; Post-emerge Herbicidal Activity CHEAL (phytotoxicity rating 0-100) [16]: 0; Post-emerge Herbicidal Activity DIGSA (phytotoxicity rating 0-100) [17]: 0; Post-emerge Herbicidal Activity AMARE (phytotoxicity rating 0-100) [18]: 70; Post-emerge Herbicidal Activity IPOHE (phytotoxicity rating 0-100) [19]: 40; Post-emerge Herbicidal Activity SORHA (phytotoxicity rating 0-100) [20]: 0; Post-emerge Herbicidal Activity CASOB (phytotoxicity rating 0-100) [21]: 10; Post-emerge Herbicidal Activity ECHCG (phytotoxicity rating 0-100) [22]: 50; Post-emerge Herbicidal Activity ABUTH (phytotoxicity rating 0-100) [23]: 95; Post-emerge Herbicidal Activity AMBEL (phytotoxicity rating 0-100) [24]: 20; Post-emerge Herbicidal Activity SETVI (phytotoxicity rating 0-100) [25]: 0

Q: For `COC(=O)CC1CNc2c(c(Cl)cc(F)c2-n2c(=O)cc(C(F)(F)F)n(C)c2=O)O1` (centres unmarked) [Compound 2-8, 3-[8-Chloro-6-fluoro-2-(methoxycarbonyl)methyl-3,4-dihydro-2H-1,4-benzoxazin-5-yl]-1-methyl-6-trifluoromethyl-2,4(1H,3H)-pyrimidindione], which “Post-emerge crop damage SOY (phytotoxicity rating 0-100)” value [1, 28] is on record?
A: 100

Q: What about the “Post-emerge crop damage CORN (phytotoxicity rating 0-100)” value [2, 29] of the same molecule?
A: 70

Q: And the “Post-emerge crop damage RICE (phytotoxicity rating 0-100)” value ([3]; var. Tebonnet, upland rice (Ory0a sp.), in vivo, 14 days)?
A: 90

Q: And the “Pre-emerge Herbicidal Activity CHEAL (phytotoxicity rating)” value [4]?
A: 100

Q: And the “Pre-emerge Herbicidal Activity DIGSA (phytotoxicity rating)” value [5]?
A: 100

Q: What about the “Pre-emerge Herbicidal Activity AMARE (phytotoxicity rating)” value [6] of the same molecule?
A: 100

Q: What about the “Pre-emerge Herbicidal Activity IPOHE (phytotoxicity rating)” value [7] of the same molecule?
A: 100

Q: And the “Pre-emerge Herbicidal Activity SORHA (phytotoxicity rating)” value [8]?
A: 100

Q: What about the “Pre-emerge Herbicidal Activity CASOB (phytotoxicity rating)” value [9] of the same molecule?
A: 100

Q: And the “Pre-emerge Herbicidal Activity ECHCG (phytotoxicity rating)” value [10]?
A: 60

Q: And the “Pre-emerge Herbicidal Activity ABUTH (phytotoxicity rating)” value [11]?
A: 100

Q: What about the “Pre-emerge Herbicidal Activity SETVI (phytotoxicity rating)” value [12] of the same molecule?
A: 100

Q: And the “Pre-emerge Herbicidal Activity SOY (crop damage rating)” value [13, 28]?
A: 100

Q: And the “Pre-emerge Herbicidal Activity CORN (crop damage rating)” value [14, 29]?
A: 70

Q: And the “Pre-emerge Herbicidal Activity RICE (crop damage rating)” value ([15]; var. Tebonnet, upland rice (Ory0a sp.), 14 days)?
A: 50

Q: What about the “Post-emerge Herbicidal Activity CHEAL (phytotoxicity rating 0-100)” value [16] of the same molecule?
A: 100

Q: And the “Post-emerge Herbicidal Activity DIGSA (phytotoxicity rating 0-100)” value [17]?
A: 50

Q: What about the “Post-emerge Herbicidal Activity AMARE (phytotoxicity rating 0-100)” value [18] of the same molecule?
A: 100

Q: What about the “Post-emerge Herbicidal Activity IPOHE (phytotoxicity rating 0-100)” value [19] of the same molecule?
A: 100

Q: And the “Post-emerge Herbicidal Activity SORHA (phytotoxicity rating 0-100)” value [20]?
A: 95

Q: What about the “Post-emerge Herbicidal Activity CASOB (phytotoxicity rating 0-100)” value [21] of the same molecule?
A: 50

Q: And the “Post-emerge Herbicidal Activity ECHCG (phytotoxicity rating 0-100)” value [22]?
A: 80

Q: And the “Post-emerge Herbicidal Activity ABUTH (phytotoxicity rating 0-100)” value [23]?
A: 100

Q: What about the “Post-emerge Herbicidal Activity AMBEL (phytotoxicity rating 0-100)” value [24] of the same molecule?
A: 100

Q: What about the “Post-emerge Herbicidal Activity SETVI (phytotoxicity rating 0-100)” value [25] of the same molecule?
A: 100
